Laboratory results taken from PubChem BioAssay (NCI).
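How tested: cells in 96-well plates exposed to compound for 48 hours at five concentrations. Definition used: TGI = concentration required for complete inhibition of growth.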

Key:
Experiment in all cases: NCI anticancer screen, dose series, 48 h
786-0 renal = test system: 786-0 renal
ACHN renal = test system: ACHN renal
COLO 205 colon = test system: COLO 205 colon
EKVX NSCLC = test system: EKVX NSCLC
HCC-2998 colon = test system: HCC-2998 colon
HCT-15 colon = test system: HCT-15 colon
HOP-92 NSCLC = test system: HOP-92 NSCLC
MALME-3M melanoma = test system: MALME-3M melanoma
OVCAR-3 ovarian = test system: OVCAR-3 ovarian
SF-539 CNS = test system: SF-539 CNS
SK-MEL-28 melanoma = test system: SK-MEL-28 melanoma
U251 CNS = test system: U251 CNS

Row | Compound | TGI (786-0 renal) | TGI (ACHN renal) | TGI (COLO 205 colon) | TGI (EKVX NSCLC) | TGI (HCC-2998 colon) | TGI (HCT-15 colon) | TGI (HOP-92 NSCLC) | TGI (MALME-3M melanoma) | TGI (OVCAR-3 ovarian) | TGI (SF-539 CNS) | TGI (SK-MEL-28 melanoma) | TGI (U251 CNS)
1 | COC(=O)[C@H]1C=C[C@@H](C)n2c(=O)c3ccccc3c(=O)n21 | > 100 µM | > 100 µM | > 100 µM | > 100 µM | > 100 µM | > 100 µM | > 100 µM | > 100 µM | > 100 µM | > 100 µM | > 100 µM | > 100 µM
2 | CC(=O)c1c(O)ccc2c1CC(CC=O)O2 (stereo not drawn) | > 100 µM | > 100 µM | > 100 µM |  | > 100 µM | > 100 µM | > 100 µM | > 100 µM | > 100 µM | > 100 µM | > 100 µM | > 100 µM
3 | CN(C)CCCSc1c2ccccc2nc2cc(NCC(=O)Nc3ccccc3-c3ccccc3NC(=O)CNc3ccc4c(SCCCN(C)C)c5ccccc5nc4c3)ccc12 | > 100 µM | > 100 µM | > 100 µM | > 100 µM | > 100 µM | > 100 µM | > 100 µM | > 100 µM | > 100 µM | > 100 µM | > 100 µM | > 100 µM
4 | NC(=O)C12C3C4C1C1C2C3C41C(N)=O (stereo not drawn) | > 100 µM | > 100 µM | > 100 µM | > 100 µM | > 100 µM | > 100 µM | > 100 µM |  | > 100 µM | > 100 µM | > 100 µM | > 100 µM
5 | COc1ccc(/C=C2\N=C(c3ccccc3)N(Nc3nnc(NN4C(=O)/C(=C/c5ccc(OC)cc5)N=C4c4ccccc4)c4ccccc34)C2=O)cc1 | > 100 µM | > 100 µM | > 100 µM | > 100 µM |  | > 100 µM | > 100 µM |  |  | > 100 µM | > 100 µM | > 100 µM
6 | CO/C(=N\N=C\c1ccc(OC)cc1OC)c1ccncc1 | > 10 µM | > 10 µM | > 10 µM |  | > 10 µM | > 10 µM |  | > 10 µM |  | > 10 µM | > 10 µM | > 10 µM
7 | Cn1c(=O)c2c(nc(C[N+]3([O-])CCOCC3)n2C)n(C)c1=O | > 100 µM | > 100 µM | > 100 µM | > 100 µM | > 100 µM | > 100 µM | > 100 µM | > 100 µM | > 100 µM | > 100 µM | > 100 µM | > 100 µM
8 | COc1ccc(-c2onc(-c3c(C)cc(C)cc3C)c2C2=NCCCN2)cc1 | > 100 µM | > 100 µM | > 100 µM | > 100 µM | > 100 µM | > 100 µM |  | > 100 µM | > 100 µM | 53.7 µM | > 100 µM | 57.9 µM
9 | COc1cccc(/C(C=O)=C(\Cl)c2ccc(OC)c(OC)c2)c1 | 30.7 µM | 26.4 µM | 27.5 µM | 33.9 µM | 29.8 µM | 25.6 µM | 38.7 µM | 29 µM | 30.2 µM | 30.4 µM | 29 µM | 27.4 µM
10 | NC(=O)c1csc(CCCCCCc2nc(C(N)=O)cs2)n1 | > 73.7 µM | > 100 µM | > 100 µM | > 100 µM | > 100 µM | > 100 µM | > 100 µM | > 100 µM | > 100 µM | > 100 µM | > 100 µM | > 65.1 µM
11 | CC(=O)OC1OC2C(NC(=O)OC(C)(C)C)C1CC2(OCc1ccccc1)OCc1ccccc1 (stereo not drawn) | 56.8 µM | 80 µM | 41.5 µM | > 100 µM | 40.7 µM | > 100 µM | 30.3 µM | 20.8 µM | 38.5 µM | 33.8 µM | 57.2 µM | 32.4 µM
12 | COc1ccc(C2CCC(Cl)(OC)CC2C=O)cc1 (stereo not drawn) | > 100 µM | > 100 µM | > 100 µM | > 100 µM | > 100 µM | > 100 µM | > 100 µM | > 100 µM | > 100 µM | > 100 µM | > 100 µM | > 100 µM
13 | O=C1C(Cl)C(c2ccc(Cl)cc2)N1n1cnc2ccccc2c1=O (stereo not drawn) | > 100 µM | > 100 µM | > 100 µM | 82.4 µM | > 100 µM | > 100 µM |  | > 100 µM | > 100 µM |  | > 100 µM | > 100 µM
14 | O=C(O)c1cc(-c2ccccc2O)nc2ccccc12 | > 100 µM | > 100 µM | > 100 µM | > 100 µM | > 100 µM | > 100 µM |  | > 100 µM | > 100 µM | > 100 µM | > 100 µM | > 100 µM
15 | NC12CC3CC(C1)CC(Cl)(C3)C2 | > 100 µM | > 100 µM | > 100 µM | > 100 µM | > 100 µM |  | > 100 µM | > 100 µM | > 100 µM | > 100 µM | > 100 µM | > 100 µM
16 | NC1=NC2(O)c3ccccc3C(=O)C2(O)N1 (stereo not drawn) | > 100 µM | > 100 µM | > 100 µM | > 100 µM |  | > 100 µM | > 100 µM | > 100 µM | > 100 µM | > 100 µM | > 100 µM | > 100 µM
